Data from patent publication US7504519B2, “Derivatives of pyrazoline, procedure for obtaining them and use thereof as therapeutic agents” (Laboratorios Del Dr. Esteve, S.A., priority 2004, dated 2009).
Where a name gives a salt, the structure may show the parent alone.

Tests used:
rats = experiment: Analgesia test on rats (carrageenan subplantar injection, thermal stimulus, Hargreaves method); assay type: in vivo; conditions: analgesic activity, rat, 2.5 mg/kg i.v., compound given 3 h after carrageenan; for % activity At 30 min.: 30 min after administration; for % activity At 120 min.: 120 min after administration
Description: Biological Activity Analgesia Test on Rats
The analgesic activity of the compounds of the invention is tested as described in the publication by K. Hargreaves et al., Pain, 32. 77-88. (1988).
Briefly, the rats are transferred to the experimentation laboratory, where they remain in groups of five in Makrolon cages with barred floors to prevent coprophagy. At the start of the experiment, water and food were removed and animals weighed and labelled appropriately.
Each rat receives by subplantar injection 0.1 ml of sterile saline solution in the rear left leg, followed by 0.1 ml 2% (weight/volume) carrageenan suspension in sterile saline solution in the rear right leg.
Three hours following the subplantar injections of carrageenan and vehicle, each rat was intravenously administered with compounds to be tested, dissolved in sterile saline serum, at a dose of 1 ml per kg of body weight. Then after administration of compounds, analgesic activity values were readed. For this purpose, rats were transferred to the methacrylate chambers of an analgesimeter with a glass floor. Once the period of acclimatisation in the chambers had elapsed (i.e., after 5 minutes), an infrared radiation lamp capable of producing thermal stimulation was placed under the rats' legs. Readings of analgesic activity were taken at 15, 30, 60 and 120 minutes following administration of the products or their vehicle.
The thermal stimulus, calibrated beforehand to 10 amperes, is applied to each of the rear legs at intervals of at least 1 minute. The response of the rats to the pain consists in raising the leg, thus avoiding contact with the floor.

melting point [°C]	Compound	% activity At 30 min. (rats) [%]	% activity At 120 min. (rats) [%]
–	COC(=O)NS(=O)(=O)c1ccc(C2CC(C(F)(F)F)=NN2c2ccccc2)cc1 (stereo not shown) [Compound 31, N-Methoxycarbonyl-4-(4,5-dihydro-1-phenyl-3-trifluoromethyl-1H-pyrazole-5-yl)benzenesulphonamide]	76	49
–	O=C(CO)NS(=O)(=O)c1ccc(N2N=C(C(F)(F)F)CC2c2ccccc2)cc1 (stereo not shown) [Compound 3, N-(2-Hydroxyacetyl)-4-(4,5-dihydro-5-phenyl-3-trifluoromethyl-pyrazole-1-yl)-benzenesulphonamide]	41	40
–	N-(4-Trifluoromethyl)benzoil-4-(4,5-dihydro-1-phenyl-3-trifluoromethyl-1H-pyrazole-5-yl)benzenesulphonamide [Compound 39]	92	57
–	N-Ethyloxicarbonyl-4-(4,5-dihydro-5-phenyl-3-trifluoromethyl-pyrazole-1-yl)-benzenesulphonamide [Compound 4]	78	48
–	CCC(=O)NS(=O)(=O)c1ccc(C2CC(C(F)(F)F)=NN2c2ccccc2)cc1 (stereo not shown) [Compound 32, N-Propionyl-4-(4,5-dihydro-1-phenyl-3-trifluoromethyl-1H-pyrazole-5-yl)benzenesulphonamide]	72	51
> 280	CCC(=O)NS(=O)(=O)c1ccc(C2CC(C(F)(F)F)=NN2c2ccccc2)cc1 (stereo not shown) (as salt: sodium) [Compound 32, N-Propionyl-4-(4,5-dihydro-1-phenyl-3-trifluoromethyl-1H-pyrazole-5-yl)benzenesulphonamide]	–	–
–	CCCCOC(=O)NS(=O)(=O)c1ccc(C2CC(C(F)(F)F)=NN2c2ccccc2)cc1 (stereo not shown) [Compound 37, N-Butoxycarbonyl-4-(4,5-dihydro-1-phenyl-3-trifluoromethyl-1H-pyrazole-5-yl)benzenesulphonamide]	68	75
> 280	O=C(NS(=O)(=O)c1ccc(N2N=C(C(F)(F)F)CC2c2ccccc2)cc1)c1ccc(C(F)(F)F)cc1 (stereo not shown) (as salt: sodium) [Compound 22, N-(4-Trifluoromethylbenzoyl)-4-(4,5-dihydro-5-phenyl-3-trifluoromethyl-pyrazole-1-yl)-benzenesulphonamide]	–	–
–	O=C(NS(=O)(=O)c1ccc(N2N=C(C(F)(F)F)CC2c2ccccc2)cc1)c1ccc(C(F)(F)F)cc1 (stereo not shown) [Compound 22, N-(4-Trifluoromethylbenzoyl)-4-(4,5-dihydro-5-phenyl-3-trifluoromethyl-pyrazole-1-yl)-benzenesulphonamide]	72	76
–	COC(=O)c1ccc(NS(=O)(=O)c2ccc(N3N=C(C(F)(F)F)CC3c3ccccc3)cc2)cc1 (stereo not shown) [Compound 25, 4-[4-(4,5-dihydro-5-phenyl-3-trifluoromethyl-pyrazole-1-yl)-benzenesulphonylamine] benzoic acid methylic ester]	67	66

Compound	melting point [°C]	% activity At 30 min. (rats) [%]	% activity At 120 min. (rats) [%]
CCCCOC(=O)NS(=O)(=O)c1ccc(C2CC(C(F)(F)F)=NN2c2ccccc2)cc1 (stereo not shown) (as salt: sodium) [Compound 37, N-Butoxycarbonyl-4-(4,5-dihydro-1-phenyl-3-trifluoromethyl-1H-pyrazole-5-yl)benzenesulphonamide]	223 to 230	–	–
